# Data reported in paper PMC3814616, “BRAF inhibitors suppress apoptosis through off-target inhibition of JNK signaling” (eLife, 2013).
# pIC50: −log10 of the molar value.
# Legend:
# MAP3K2 = target: T1, MAP3K2 (Homo sapiens, UniProt Q9Y2U5); assay: Quantitative competitive binding assay (KINOMEscan); settings: for remaining binding at 0.05 µM: read-out: Percent control (50 nM); for remaining binding at 0.2 µM: read-out: Percent control (200 nM); for remaining binding at 1 µM: read-out: Percent control (1000 nM); for remaining binding at 10 µM: read-out: Percent control (10 μM)
# T1 construct: purchased KINOMEscan (DiscoveRx), San Diego, CA
# T1 sequence (Q9Y2U5 1-619): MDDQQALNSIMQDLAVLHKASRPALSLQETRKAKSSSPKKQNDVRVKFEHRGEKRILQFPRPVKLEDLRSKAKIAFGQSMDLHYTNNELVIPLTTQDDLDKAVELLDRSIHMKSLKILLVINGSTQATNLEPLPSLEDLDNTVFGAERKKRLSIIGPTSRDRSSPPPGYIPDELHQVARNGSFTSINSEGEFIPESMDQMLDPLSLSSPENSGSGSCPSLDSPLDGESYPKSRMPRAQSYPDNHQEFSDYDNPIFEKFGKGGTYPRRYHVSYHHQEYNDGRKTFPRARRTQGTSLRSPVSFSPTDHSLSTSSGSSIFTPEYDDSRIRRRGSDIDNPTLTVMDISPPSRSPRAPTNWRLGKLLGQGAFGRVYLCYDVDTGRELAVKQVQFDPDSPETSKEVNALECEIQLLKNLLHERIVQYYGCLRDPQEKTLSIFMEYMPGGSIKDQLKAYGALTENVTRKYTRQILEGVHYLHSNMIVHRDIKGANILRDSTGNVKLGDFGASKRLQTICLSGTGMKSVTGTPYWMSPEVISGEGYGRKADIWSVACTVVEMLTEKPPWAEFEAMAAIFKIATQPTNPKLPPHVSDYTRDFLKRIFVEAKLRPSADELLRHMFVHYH
# RIPK1 = target: T2, RIPK1 (Homo sapiens, UniProt Q13546); assay: as above; settings: for remaining binding at 0.05 µM: read-out: Percent control (50 nM); for remaining binding at 0.2 µM: read-out: Percent control (200 nM); for remaining binding at 1 µM: read-out: Percent control (1000 nM); for remaining binding at 10 µM: read-out: Percent control (10 μM)
# T2 construct: purchased KINOMEscan (DiscoveRx), San Diego, CA
# MLK3 (MAP3K11) = target: T3, MLK3 (MAP3K11) (Homo sapiens, UniProt Q16584); assay: as above
# T3 construct: purchased KINOMEscan (DiscoveRx), San Diego, CA
# HaCaT cells = assay: UV-induced apoptosis, FACS Annexin V+, TMRE-low; type: cell-based, human; settings: 1 kJ/m^2 UVB, 1 μM, 24 hr, vs DMSO
# phospho-JNK = assay: Western blot of epidermis of irradiated mice; settings: oral gavage 40–80 mg/kg twice a day, 10 kJ/m^2 UVB
# [1] = tested on: HRAS^G12V-transformed HaCaT cells (SCR, TKD); assay: Soft agar colony formation; type: cell-based, human; settings: 1.0 μM, SCR and TKD cells
# MAP4K5 = target: T4, MAP4K5 (Homo sapiens, UniProt Q9Y4K4); set-up: method as in Bollag et al., 2010; settings: ref Bollag et al., 2010; read-out: Published biochemical IC50; cited from earlier work
# T4 construct: purchased KINOMEscan (DiscoveRx), San Diego, CA
# ASK1 (MAP3K5) = target: T5, ASK1 (MAP3K5) (Homo sapiens, UniProt Q99683); set-up: method as in Bollag et al., 2010; settings: ref Bollag et al., 2010; read-out: Published biochemical IC50; cited from earlier work
# T5 construct: purchased KINOMEscan (DiscoveRx), San Diego, CA
# T5 sequence (Q99683 1-1374): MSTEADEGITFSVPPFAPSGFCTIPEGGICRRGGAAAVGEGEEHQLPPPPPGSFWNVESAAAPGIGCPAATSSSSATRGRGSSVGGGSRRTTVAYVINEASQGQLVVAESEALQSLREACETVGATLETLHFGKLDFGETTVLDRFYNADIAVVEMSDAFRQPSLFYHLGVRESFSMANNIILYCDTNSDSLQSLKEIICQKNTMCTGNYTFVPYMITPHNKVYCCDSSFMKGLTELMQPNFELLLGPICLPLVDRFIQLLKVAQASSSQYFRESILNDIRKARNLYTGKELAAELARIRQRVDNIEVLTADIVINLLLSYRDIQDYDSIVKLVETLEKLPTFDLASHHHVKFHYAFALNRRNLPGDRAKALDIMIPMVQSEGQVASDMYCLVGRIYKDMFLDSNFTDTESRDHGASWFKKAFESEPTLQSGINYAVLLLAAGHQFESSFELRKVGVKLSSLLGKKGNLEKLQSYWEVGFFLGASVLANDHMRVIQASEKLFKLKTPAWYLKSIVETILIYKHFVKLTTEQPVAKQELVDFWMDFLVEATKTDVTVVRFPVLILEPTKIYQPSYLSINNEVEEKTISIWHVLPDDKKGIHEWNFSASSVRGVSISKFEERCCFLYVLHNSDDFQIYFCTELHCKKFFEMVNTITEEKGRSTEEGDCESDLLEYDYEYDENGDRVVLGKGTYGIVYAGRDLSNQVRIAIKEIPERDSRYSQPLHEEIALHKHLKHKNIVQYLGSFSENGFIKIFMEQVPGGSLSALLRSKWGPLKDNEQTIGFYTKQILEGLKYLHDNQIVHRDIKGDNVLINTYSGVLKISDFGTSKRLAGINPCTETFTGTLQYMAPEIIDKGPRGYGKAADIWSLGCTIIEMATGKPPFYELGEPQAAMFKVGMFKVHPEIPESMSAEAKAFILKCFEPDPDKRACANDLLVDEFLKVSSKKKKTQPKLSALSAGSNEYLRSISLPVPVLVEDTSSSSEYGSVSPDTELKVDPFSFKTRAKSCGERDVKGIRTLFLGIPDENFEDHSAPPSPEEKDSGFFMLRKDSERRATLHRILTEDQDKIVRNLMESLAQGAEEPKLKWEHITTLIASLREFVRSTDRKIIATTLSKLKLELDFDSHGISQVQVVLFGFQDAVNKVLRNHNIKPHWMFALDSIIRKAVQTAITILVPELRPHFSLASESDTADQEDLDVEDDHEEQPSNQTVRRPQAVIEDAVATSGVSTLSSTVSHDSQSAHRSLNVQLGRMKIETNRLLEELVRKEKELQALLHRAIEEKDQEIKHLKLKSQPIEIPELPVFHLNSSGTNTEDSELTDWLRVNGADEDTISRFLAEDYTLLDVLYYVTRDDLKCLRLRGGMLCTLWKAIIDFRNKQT
# ASK1 = target: T6, ASK1 (Homo sapiens, UniProt Q99683); assay: In vitro kinase assay (Reaction Biology); type: biochemical; settings: run in parallel
# T6 construct: purchased Reaction Biology
# Text: . Average percent inhibition was reported. […]
# BLK = target: T7, BLK (Homo sapiens, UniProt P51451); set-up: method as in Bollag et al., 2010; settings: ref Bollag et al., 2010; read-out: Published biochemical IC50; cited from earlier work
# T7 construct: purchased KINOMEscan (DiscoveRx), San Diego, CA
# T7 sequence (P51451 whole entry): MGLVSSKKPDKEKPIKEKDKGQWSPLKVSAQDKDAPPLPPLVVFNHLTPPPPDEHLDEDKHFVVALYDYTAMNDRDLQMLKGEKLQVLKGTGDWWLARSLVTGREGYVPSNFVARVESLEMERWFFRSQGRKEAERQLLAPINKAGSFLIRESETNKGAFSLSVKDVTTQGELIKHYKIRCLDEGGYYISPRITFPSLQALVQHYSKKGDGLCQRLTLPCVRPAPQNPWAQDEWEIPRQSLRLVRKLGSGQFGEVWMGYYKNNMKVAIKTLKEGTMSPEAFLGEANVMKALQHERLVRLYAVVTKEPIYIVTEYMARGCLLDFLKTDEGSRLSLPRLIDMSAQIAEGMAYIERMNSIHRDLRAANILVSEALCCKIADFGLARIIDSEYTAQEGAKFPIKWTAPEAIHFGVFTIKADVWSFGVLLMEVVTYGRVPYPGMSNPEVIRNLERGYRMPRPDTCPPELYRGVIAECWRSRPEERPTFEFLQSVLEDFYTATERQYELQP
# T3 sequence (Q16584 whole entry): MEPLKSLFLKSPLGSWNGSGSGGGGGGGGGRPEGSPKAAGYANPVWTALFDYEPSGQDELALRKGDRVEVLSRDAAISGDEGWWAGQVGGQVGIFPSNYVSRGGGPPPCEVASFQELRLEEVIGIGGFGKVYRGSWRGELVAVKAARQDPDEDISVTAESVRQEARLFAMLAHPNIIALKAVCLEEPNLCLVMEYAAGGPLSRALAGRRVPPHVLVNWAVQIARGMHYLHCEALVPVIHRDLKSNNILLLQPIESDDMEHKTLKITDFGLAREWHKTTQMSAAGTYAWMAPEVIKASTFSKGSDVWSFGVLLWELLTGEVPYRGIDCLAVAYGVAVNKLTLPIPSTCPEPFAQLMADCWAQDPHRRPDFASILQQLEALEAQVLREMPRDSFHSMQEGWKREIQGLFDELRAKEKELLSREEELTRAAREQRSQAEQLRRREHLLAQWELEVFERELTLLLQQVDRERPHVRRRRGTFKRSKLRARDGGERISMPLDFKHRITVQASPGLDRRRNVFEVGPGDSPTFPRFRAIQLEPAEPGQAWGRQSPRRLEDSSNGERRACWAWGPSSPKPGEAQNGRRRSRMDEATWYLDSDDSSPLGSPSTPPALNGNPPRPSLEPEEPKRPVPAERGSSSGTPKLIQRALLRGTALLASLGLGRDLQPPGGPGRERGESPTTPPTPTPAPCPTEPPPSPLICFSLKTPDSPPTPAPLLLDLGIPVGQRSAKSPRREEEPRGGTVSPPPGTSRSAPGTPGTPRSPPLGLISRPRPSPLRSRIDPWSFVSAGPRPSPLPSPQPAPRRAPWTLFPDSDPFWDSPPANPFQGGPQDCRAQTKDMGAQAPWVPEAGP
# T2 sequence (Q13546 whole entry): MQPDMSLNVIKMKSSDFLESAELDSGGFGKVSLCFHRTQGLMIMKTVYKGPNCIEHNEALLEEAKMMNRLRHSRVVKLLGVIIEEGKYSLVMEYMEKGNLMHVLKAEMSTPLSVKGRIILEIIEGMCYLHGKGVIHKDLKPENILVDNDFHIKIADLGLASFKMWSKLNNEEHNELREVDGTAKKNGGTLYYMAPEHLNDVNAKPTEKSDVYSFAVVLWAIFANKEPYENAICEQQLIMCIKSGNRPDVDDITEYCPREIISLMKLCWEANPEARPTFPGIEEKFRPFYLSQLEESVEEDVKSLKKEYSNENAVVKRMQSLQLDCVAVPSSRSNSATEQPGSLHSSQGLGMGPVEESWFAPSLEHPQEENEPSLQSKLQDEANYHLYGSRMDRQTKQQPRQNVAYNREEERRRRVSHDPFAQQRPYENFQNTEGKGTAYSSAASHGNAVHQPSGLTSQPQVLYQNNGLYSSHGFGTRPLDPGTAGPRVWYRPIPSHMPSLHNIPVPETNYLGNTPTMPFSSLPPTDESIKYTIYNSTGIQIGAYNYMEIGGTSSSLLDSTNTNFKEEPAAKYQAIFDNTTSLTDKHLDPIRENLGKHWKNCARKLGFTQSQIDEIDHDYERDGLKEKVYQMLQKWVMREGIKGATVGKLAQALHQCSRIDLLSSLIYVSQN
# T4 sequence (Q9Y4K4 whole entry): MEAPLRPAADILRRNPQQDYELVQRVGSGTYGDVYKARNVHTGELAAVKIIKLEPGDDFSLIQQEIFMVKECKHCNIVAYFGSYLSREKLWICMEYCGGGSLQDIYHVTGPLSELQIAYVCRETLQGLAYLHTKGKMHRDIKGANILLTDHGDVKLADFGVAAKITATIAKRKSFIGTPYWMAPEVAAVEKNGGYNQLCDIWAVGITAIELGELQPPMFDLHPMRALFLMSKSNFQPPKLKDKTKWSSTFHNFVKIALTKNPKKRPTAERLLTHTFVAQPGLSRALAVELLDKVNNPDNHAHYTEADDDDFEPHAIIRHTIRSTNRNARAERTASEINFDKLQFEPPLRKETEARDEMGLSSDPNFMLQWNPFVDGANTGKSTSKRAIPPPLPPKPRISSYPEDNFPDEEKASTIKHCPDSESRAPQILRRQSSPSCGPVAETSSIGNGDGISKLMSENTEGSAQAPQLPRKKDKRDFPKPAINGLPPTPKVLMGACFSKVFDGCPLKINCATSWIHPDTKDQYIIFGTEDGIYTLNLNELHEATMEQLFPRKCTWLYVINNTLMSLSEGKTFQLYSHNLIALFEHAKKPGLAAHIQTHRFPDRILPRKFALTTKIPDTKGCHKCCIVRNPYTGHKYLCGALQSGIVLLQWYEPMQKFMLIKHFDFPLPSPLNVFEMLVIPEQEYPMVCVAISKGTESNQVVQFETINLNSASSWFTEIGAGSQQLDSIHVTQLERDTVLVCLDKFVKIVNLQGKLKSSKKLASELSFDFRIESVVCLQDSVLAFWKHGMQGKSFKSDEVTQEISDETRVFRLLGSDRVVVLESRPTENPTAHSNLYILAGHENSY
SMILES,remaining binding at 0.05 µM (MAP3K2) [%],remaining binding at 0.2 µM (MAP3K2) [%],remaining binding at 1 µM (MAP3K2) [%],remaining binding at 10 µM (MAP3K2) [%],remaining binding at 0.05 µM (RIPK1) [%],remaining binding at 0.2 µM (RIPK1) [%],remaining binding at 1 µM (RIPK1) [%],remaining binding at 10 µM (RIPK1) [%],remaining binding at 0.05 µM (MLK3 (MAP3K11); read-out: Percent control (50 nM)) [%],remaining binding at 0.2 µM (MLK3 (MAP3K11); read-out: Percent control (200 nM)) [%],remaining binding at 1 µM (MLK3 (MAP3K11); read-out: Percent control (1000 nM)) [%],remaining binding at 10 µM (MLK3 (MAP3K11); read-out: Percent control (10 μM)) [%],suppression of UV-induced apoptosis (HaCaT cells),UV-induced phospho-JNK in epidermis (phospho-JNK),colony formation [1],pIC50 (MAP4K5),pIC50 (ASK1 (MAP3K5)),inhibition of ASK1 (ASK1),pIC50 (BLK)
CCCS(=O)(=O)Nc1ccc(F)c(C(=O)c2c[nH]c3ncc(Cl)cc23)c1F [PLX4720],100,93,87,41,99,87,85,50,100,100,100,100,at least 70%,significantly suppressed,significant colony formation advantage,–,–,–,–
CCCS(=O)(=O)Nc1ccc(F)c(C(=O)c2c[nH]c3ncc(-c4ccc(Cl)cc4)cc23)c1F [vemurafenib],91,91,89,83,92,100,99,73,–,–,–,–,–,–,–,7.29,< 6.00,no significant inhibition,6.26
